Counter-ions that a name gives are not always drawn.
How the values were obtained:
Details in all cases: exposure time: 72 h
E21 [1] = patient-derived glioblastoma stem cells of mesenchymal subtype; experiment: surviving fraction (nuclei count normalised to DMSO); higher = more cells surviving (less toxic)
E13 [2] = patient-derived glioblastoma stem cells of classical subtype; experiment: as above
FT3469 [3] = normal neural stem cell line; experiment: as above
E34 [4] = patient-derived glioblastoma stem cells of proneural subtype; experiment: as above
E28 [5] = patient-derived glioblastoma stem cells of classical subtype; experiment: as above
E31 [6] = patient-derived glioblastoma stem cells of proneural subtype; experiment: as above
E57 [7] = patient-derived glioblastoma stem cells of mesenchymal subtype; experiment: as above
E21 [8] = experiment: phenotypic distance (Euclidean, principal components) from DMSO controls (arbitrary units); higher = stronger morphological change
E13 [9] = experiment: as above
FT3469 [10] = experiment: as above
E34 [11] = experiment: as above
E28 [12] = experiment: as above
E31 [13] = experiment: as above
E57 [14] = experiment: as above
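Throughout, for phenotypic distance (Euclidean, principal components) from DMSO controls: cell Painting imaging in 384-well plates, CellProfiler features reduced to at least 20 principal components, Euclidean distance versus same-plate DMSO vehicle wells (0.1% v/v), median over six images per well.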
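Throughout, for surviving fraction (nuclei count normalised to DMSO): nuclei counted by high-content imaging of Hoechst-stained cells in laminin-coated 384-well plates, relative to 0.1% DMSO vehicle wells, with staurosporine as cell-death control.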

COC(=O)[C@@H]1[C@H]2C[C@H]3c4[nH]c5ccccc5c4CCN3C[C@@H]2CC[C@@H]1O [Yohimbine hydrochloride]
Details	phenotypic distance	surviving fraction
E13 [2], 4.11523 nM	–	0.88
E13 [2], 12.34567901 nM	–	0.94
E13 [2], 37.037 nM	–	1.03
E13 [2], 111.1111111 nM	–	0.984
E13 [2], 333.333 nM	–	1.01
E13 [2], 1000 nM	–	0.876
E13 [2], 3000 nM	–	0.986
E13 [9], 4.11523 nM	0.924	–
E13 [9], 12.34567901 nM	0.56	–
E13 [9], 37.037 nM	0.624	–
E13 [9], 111.1111111 nM	0.517	–
E13 [9], 333.333 nM	0.539	–
E13 [9], 1000 nM	0.622	–
E13 [9], 3000 nM	0.73	–
E21 [1], 4.11523 nM	–	0.896
E21 [1], 12.34567901 nM	–	1.01
E21 [1], 37.037 nM	–	0.994
E21 [1], 111.1111111 nM	–	1.06
E21 [1], 333.333 nM	–	1.03
E21 [1], 1000 nM	–	1.01
E21 [1], 3000 nM	–	1.02
E21 [8], 4.11523 nM	0.527	–
E21 [8], 12.34567901 nM	0.576	–
E21 [8], 37.037 nM	0.624	–
E21 [8], 111.1111111 nM	0.545	–
E21 [8], 333.333 nM	0.676	–
E21 [8], 1000 nM	0.456	–
E21 [8], 3000 nM	0.417	–
E28 [5], 4.11523 nM	–	1.01
E28 [5], 12.34567901 nM	–	0.965
E28 [5], 37.037 nM	–	1.04
E28 [5], 111.1111111 nM	–	0.945
E28 [5], 333.333 nM	–	1.15
E28 [5], 1000 nM	–	0.948
E28 [5], 3000 nM	–	0.948
E28 [12], 4.11523 nM	0.456	–
E28 [12], 12.34567901 nM	0.689	–
E28 [12], 37.037 nM	1.18	–
E28 [12], 111.1111111 nM	0.639	–
E28 [12], 333.333 nM	0.696	–
E28 [12], 1000 nM	0.645	–
E28 [12], 3000 nM	0.333	–
E31 [6], 4.11523 nM	–	0.959
E31 [6], 12.34567901 nM	–	0.999
E31 [6], 37.037 nM	–	1.18
E31 [6], 111.1111111 nM	–	0.859
E31 [6], 333.333 nM	–	0.951
E31 [6], 1000 nM	–	1.07
E31 [6], 3000 nM	–	0.928
E31 [13], 4.11523 nM	0.598	–
E31 [13], 12.34567901 nM	0.58	–
E31 [13], 37.037 nM	0.688	–
E31 [13], 111.1111111 nM	0.658	–
E31 [13], 333.333 nM	0.454	–
E31 [13], 1000 nM	0.521	–
E31 [13], 3000 nM	0.828	–
E34 [4], 4.11523 nM	–	0.932
E34 [4], 12.34567901 nM	–	0.932
E34 [4], 37.037 nM	–	0.912
E34 [4], 111.1111111 nM	–	1.05
E34 [4], 333.333 nM	–	0.932
E34 [4], 1000 nM	–	0.959
E34 [4], 3000 nM	–	0.892
E34 [11], 4.11523 nM	0.815	–
E34 [11], 12.34567901 nM	0.668	–
E34 [11], 37.037 nM	0.596	–
E34 [11], 111.1111111 nM	0.623	–
E34 [11], 333.333 nM	0.866	–
E34 [11], 1000 nM	0.744	–
E34 [11], 3000 nM	0.647	–
E57 [7], 4.11523 nM	–	1.03
E57 [7], 12.34567901 nM	–	1.07
E57 [7], 37.037 nM	–	0.994
E57 [7], 111.1111111 nM	–	0.981
E57 [7], 333.333 nM	–	0.979
E57 [7], 1000 nM	–	0.979
E57 [7], 3000 nM	–	1.01
E57 [14], 4.11523 nM	0.343	–
E57 [14], 12.34567901 nM	0.457	–
E57 [14], 37.037 nM	0.558	–
E57 [14], 111.1111111 nM	0.582	–
E57 [14], 333.333 nM	0.386	–
E57 [14], 1000 nM	0.804	–
E57 [14], 3000 nM	0.576	–
FT3469 [3], 4.11523 nM	–	0.957
FT3469 [3], 12.34567901 nM	–	1.05
FT3469 [3], 37.037 nM	–	0.936
FT3469 [3], 111.1111111 nM	–	0.853
FT3469 [3], 333.333 nM	–	1.04
FT3469 [3], 1000 nM	–	0.975
FT3469 [3], 3000 nM	–	1.01
FT3469 [10], 4.11523 nM	0.568	–
FT3469 [10], 12.34567901 nM	0.613	–
FT3469 [10], 37.037 nM	0.433	–
FT3469 [10], 111.1111111 nM	1.24	–
FT3469 [10], 333.333 nM	0.516	–
FT3469 [10], 1000 nM	0.514	–
FT3469 [10], 3000 nM	0.55	–

From the supplement of paper PMC13207355
